Values of other authors in patent US7332183B2, “Multilayer dosage forms containing NSAIDs and triptans” (Pozen Inc., priority 2002, dated 2008).

Conditions: in vivo

For `Cc1cccc(Nc2ccccc2C(=O)O)c1C` [mefanamic acid], the half life is given as “about 4 hours”.
For `CCc1cccc2c3c([nH]c12)C(CC)(CC(=O)O)OCC3` (stereo not shown) [etodolac], the half life is listed as “about 7 hours”.
For `CS(=O)(=O)c1ccc(C2=C(c3ccccc3)C(=O)OC2)cc1` [rofecoxib], the half life is listed as “about 17 hours”.
For `CC(C(=O)O)c1ccc(-c2ccccc2)c(F)c1` (stereo not shown) [flurbiprofen], the half life is given as “about 6 hours”.
